Drawing on PubChem BioAssay AID330 (DTP/NCI, 2004), this text covers T/C for 22 molecules.

“And” between values parts separate entries of the source, which are not always exact repeats. Equal values may be shown once. Toxic doses and inconclusive results are not listed.

For the assay, the system named is P388 leukemia ip, CD2F1 mice, survival T/C. As to the kind of experiment: NCI In Vivo Anticancer Drug Screen. Data for tumor model P388 Leukemia (intraperitoneal) in CD2F1 (CDF1) mice. To be noted: endpoint: median survival time, higher = longer survival. The essentials:
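Mice carrying the transplanted tumor received test compound or vehicle. Survival was recorded in each group, and the value is the treated-group measurement divided by that of the vehicle-treated control group.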

Setting [1] is: dose: 50.0 mg/kg/injection, schedule: Q01DX009 (ip), vehicle: Klucel (hydroxypropylcellulose) (HPC).
The mark [2] stands for this setting: dose: 100.0 mg/kg/injection, schedule: Q01DX009 (ip), vehicle: saline with Tween-80.
The mark [3] stands for this setting: dose: 200.0 mg/kg/injection, schedule: Q01DX009 (ip), vehicle: saline with Tween-80.
Where [4] appears, read: dose: 50.0 mg/kg/injection, schedule: Q01DX005 (ip), vehicle: saline with Tween-80.
The mark [5] stands for this setting: dose: 100.0 mg/kg/injection, schedule: Q01DX005 (ip), vehicle: saline with Tween-80.
Setting [6] is: dose: 50.0 mg/kg/injection, schedule: Q01DX005 (ip), vehicle: Klucel (hydroxypropylcellulose) (HPC).
Setting [7] is: dose: 100.0 mg/kg/injection, schedule: Q01DX005 (ip), vehicle: Klucel (hydroxypropylcellulose) (HPC).
[8] abbreviates: dose: 200.0 mg/kg/injection, schedule: Q01DX005 (ip), vehicle: Klucel (hydroxypropylcellulose) (HPC).
Where [9] appears, read: dose: 100.0 mg/kg/injection, schedule: Q01DX009 (ip), vehicle: Klucel (hydroxypropylcellulose) (HPC).
Where [10] appears, read: dose: 200.0 mg/kg/injection, schedule: Q01DX009 (ip), vehicle: Klucel (hydroxypropylcellulose) (HPC).
The mark [11] stands for this setting: dose: 50.0 mg/kg/injection, schedule: Q01DX009 (ip), vehicle: saline with Tween-80.
Where [12] appears, read: dose: 200.0 mg/kg/injection, schedule: Q01DX005 (ip), vehicle: saline with Tween-80.
Setting [13] is: dose: 25.0 mg/kg/injection, schedule: Q01DX009 (ip), vehicle: saline with Tween-80.

Regarding `CS(=O)(=O)OCCN(CCOS(C)(=O)=O)c1ccc(C=Nc2ccc(-c3csc(COc4ccccc4)n3)cc2)cc1`, the T/C (dose: 12.5 mg/kg/injection, schedule: Q01DX009 (ip), vehicle: Klucel (hydroxypropylcellulose) (HPC)) was 150 % of control and 151 % of control; the T/C (dose: 25.0 mg/kg/injection, schedule: Q01DX009 (ip), vehicle: Klucel (hydroxypropylcellulose) (HPC)) was 151 % of control and 154 % of control and 164 % of control; the T/C (dose: 25.0 mg/kg/injection, schedule: Q01DX009 (oral), vehicle: Klucel (hydroxypropylcellulose) (HPC)) was 101 % of control and 104 % of control; the T/C under setting [1] is 162 % of control and 164 % of control and 166 % of control; the T/C (dose: 50.0 mg/kg/injection, schedule: Q01DX009 (oral), vehicle: Klucel (hydroxypropylcellulose) (HPC)) was 101 % of control and 106 % of control; the T/C (dose: 100.0 mg/kg/injection, schedule: Q01DX009 (oral), vehicle: Klucel (hydroxypropylcellulose) (HPC)) is 102 % of control and 108 % of control. Besides, the T/C (dose: 200.0 mg/kg/injection, schedule: Q01DX009 (oral), vehicle: Klucel (hydroxypropylcellulose) (HPC)) was 107 % of control; the T/C (dose: 400.0 mg/kg/injection, schedule: Q01DX009 (ip), vehicle: Klucel (hydroxypropylcellulose) (HPC)) was 112 % of control; the T/C (dose: 400.0 mg/kg/injection, schedule: Q01DX009 (oral), vehicle: Klucel (hydroxypropylcellulose) (HPC)) is 109 % of control; the T/C (dose: 800.0 mg/kg/injection, schedule: Q01DX009 (oral), vehicle: Klucel (hydroxypropylcellulose) (HPC)) is 109 % of control.
Consider `Cc1nnc2nc(N)[nH]n2c1=O`, for which the T/C reads like this: (dose: 25.0 mg/kg/injection, schedule: Q01DX005 (ip), vehicle: water) 95 % of control; (dose: 50.0 mg/kg/injection, schedule: Q01DX005 (ip), vehicle: water) 98 % of control; (dose: 100.0 mg/kg/injection, schedule: Q01DX005 (ip), vehicle: water) 93 % of control.
For `CCCCCCCC/C=C\CCCCCCCC(=O)OCCCCCCCCCCCCCCCCC`, the T/C under setting [2] is 100 % of control; the T/C under setting [3] was 100 % of control; the T/C (dose: 400.0 mg/kg/injection, schedule: Q01DX009 (ip), vehicle: saline with Tween-80) was 96 % of control.
Take `Cc1onc(-c2c(Cl)cccc2Cl)c1C(=O)SC1=NC(C)N2C(SC(=O)c3c(-c4c(Cl)cccc4Cl)noc3C)=NC(C)N12` (stereo not drawn): the T/C was 90 % of control under setting [4] and 87 % of control under setting [5].
With `Cn1c(=O)n2n(c1=O)C1CCC2CC1`, the T/C is, setting by setting: (dose: 50.0 mg/kg/injection, schedule: Q01DX005 (ip), vehicle: saline) 98 % of control; (dose: 100.0 mg/kg/injection, schedule: Q01DX005 (ip), vehicle: saline) 102 % of control; (dose: 200.0 mg/kg/injection, schedule: Q01DX005 (ip), vehicle: saline) 100 % of control.
For `O=C(Oc1ccc[nH]c1=O)C1CCCCC1`, the T/C reads like this: under setting [6], 108 % of control and 96 % of control; under setting [7], 100 % of control and 89 % of control; under setting [8], 102 % of control and 86 % of control; (dose: 400.0 mg/kg/injection, schedule: Q01DX005 (ip), vehicle: Klucel (hydroxypropylcellulose) (HPC)) 92 % of control and 97 % of control.
On to `CC(=O)NNC(=O)Nc1ccc(Cl)c(Cl)c1`, for which the T/C under setting [1] was 108 % of control, the T/C under setting [9] is 103 % of control and the T/C under setting [10] is 91 % of control.
Turning to `CC1(C)CSCC(C)(C)C2(C=CC=CC=N2)C1=O` (stereo not drawn), the T/C is 107 % of control under setting [6] and 115 % of control under setting [7].
`COC(=O)C(=O)C(C(=O)C=C(C)C)c1nc2n(c1O)C(=N)N=N2` (stereo not drawn): the T/C was 116 % of control (dose: 60.0 mg/kg/injection, schedule: Q01DX005 (ip), vehicle: saline); 107 % of control (dose: 120.0 mg/kg/injection, schedule: Q01DX005 (ip), vehicle: saline); 104 % of control (dose: 240.0 mg/kg/injection, schedule: Q01DX005 (ip), vehicle: saline).
In the case of `COC(=O)/C=C\SC(=S)C1CCCC1=N` (stereo not drawn), the T/C is 98 % of control under setting [11], 94 % of control under setting [2] and 91 % of control under setting [3].
Turning to `O=S1(=O)CCN(CCCc2ccccc2)CC1`, the T/C is, setting by setting: under setting [1], 102 % of control; under setting [9], 105 % of control; under setting [10], 104 % of control.
On to `COC(=O)CCCCCCCCCCCCCCCCCCCCCCCCCCCCCCCCC(=O)OC`, for which the T/C is 88 % of control (dose: 25.0 mg/kg/injection, schedule: Q01DX001 (ip), vehicle: Klucel (hydroxypropylcellulose) (HPC)); 88 % of control (dose: 50.0 mg/kg/injection, schedule: Q01DX001 (ip), vehicle: Klucel (hydroxypropylcellulose) (HPC)); 87 % of control (dose: 100.0 mg/kg/injection, schedule: Q01DX001 (ip), vehicle: Klucel (hydroxypropylcellulose) (HPC)).
For the molecule `CCOC(=O)C1=C(C)O/C(=C/c2cccc(Cl)c2)C1=O`, the T/C by setting is: under setting [4], 117 % of control and 119 % of control; under setting [5], 121 % of control and 123 % of control; under setting [12], 113 % of control.
As to `CC1=C(C(=O)Nc2ccccc2C)C(c2ccco2)C(C(=O)Nc2ccccc2C)=C(C)N1`, the T/C runs as follows: (dose: 60.0 mg/kg/injection, schedule: Q01DX005 (ip), vehicle: saline with Tween-80) 96 % of control; (dose: 120.0 mg/kg/injection, schedule: Q01DX005 (ip), vehicle: saline with Tween-80) 94 % of control; (dose: 240.0 mg/kg/injection, schedule: Q01DX005 (ip), vehicle: saline with Tween-80) 97 % of control.
As to `CN(C)CCCCNc1c2c(nc3c(Cl)cccc13)CCC2`, the T/C is, setting by setting: under setting [4], 99 % of control; under setting [5], 105 % of control; under setting [12], 99 % of control.
For the molecule `Cc1ccc(C(=O)NC2c3ccccc3Oc3ccccc32)cc1`, the T/C under setting [4] was 90 % of control and the T/C under setting [5] was 86 % of control.
Regarding `O=C(O)c1cc2c3ccccc3sc2c2ccccc12`, the T/C by setting is: (dose: 30.0 mg/kg/injection, schedule: Q01DX005 (ip), vehicle: Klucel (hydroxypropylcellulose) (HPC)) 93 % of control; (dose: 60.0 mg/kg/injection, schedule: Q01DX005 (ip), vehicle: Klucel (hydroxypropylcellulose) (HPC)) 93 % of control; (dose: 120.0 mg/kg/injection, schedule: Q01DX005 (ip), vehicle: Klucel (hydroxypropylcellulose) (HPC)) 90 % of control; (dose: 240.0 mg/kg/injection, schedule: Q01DX005 (ip), vehicle: Klucel (hydroxypropylcellulose) (HPC)) 90 % of control.
In the case of `O=C(NC1CCOC1=O)OCc1ccccc1` (stereo not drawn), the T/C was 110 % of control (dose: 25.0 mg/kg/injection, schedule: Q01DX009 (ip), vehicle: distilled water + Tween-80); 95 % of control (dose: 50.0 mg/kg/injection, schedule: Q01DX009 (ip), vehicle: distilled water + Tween-80); 117 % of control (dose: 100.0 mg/kg/injection, schedule: Q01DX009 (ip), vehicle: distilled water + Tween-80); 111 % of control (dose: 200.0 mg/kg/injection, schedule: Q01DX009 (ip), vehicle: distilled water + Tween-80).
On to `Oc1ccc(O)c(/C=N/N=C/c2cc(O)ccc2O)c1`, for which the T/C reads like this: under setting [6], 97 % of control; under setting [7], 97 % of control; under setting [8], 91 % of control.
Consider `CN(C)CCCOc1ccc(NC2=C(Cl)C(=O)C(Nc3ccc(OCCCN(C)C)cc3)=C(Cl)C2=O)cc1`, for which the T/C runs as follows: (dose: 6.25 mg/kg/injection, schedule: Q01DX005 (ip), vehicle: suspension in saline) 101 % of control; (dose: 12.5 mg/kg/injection, schedule: Q01DX005 (ip), vehicle: suspension in saline) 101 % of control; (dose: 25.0 mg/kg/injection, schedule: Q01DX005 (ip), vehicle: suspension in saline) 103 % of control.
On to `c1ccc(C2=NCCCO2)cc1`, for which the T/C reads like this: under setting [13], 104 % of control; (dose: 25.0 mg/kg/injection, schedule: Q04DX003 (ip), vehicle: saline with Tween-80) 100 % of control; under setting [11], 95 % of control; (dose: 50.0 mg/kg/injection, schedule: Q04DX003 (ip), vehicle: saline with Tween-80) 100 % of control; under setting [2], 108 % of control; (dose: 100.0 mg/kg/injection, schedule: Q04DX003 (ip), vehicle: saline with Tween-80) 100 % of control.
For the molecule `O=Ic1ccccc1`, the T/C (dose: 3.12 mg/kg/injection, schedule: Q01DX009 (ip), vehicle: saline with Tween-80) is 104 % of control; the T/C (dose: 6.25 mg/kg/injection, schedule: Q01DX009 (ip), vehicle: saline with Tween-80) is 108 % of control; the T/C (dose: 12.5 mg/kg/injection, schedule: Q01DX009 (ip), vehicle: saline with Tween-80) was 114 % of control; the T/C under setting [13] was 112 % of control; the T/C under setting [11] is 99 % of control.
